# Patent publication US20190240210A1, “Treatment Method by Combined Use of MDM2 Inhibitor and DNA Methyltransferase Inhibitor” (DAIICHI SANKYO COMPANY, LIMITED, priority 2016, published 2019)
# Legend:
# [1] = test system: human acute myeloid leukemia cell line MOLM-13; assay: In vivo effect of combined use of Compound A and decitabine on subcutaneous MOLM-13 tumors in NOD-SCID mice (Test Example 2); conditions: for TGI (%): 17 days after tumor inoculation
# Method: Human acute myeloid leukemia cell line MOLM-13 cells were suspended to 5×10^7 cells/mL using phosphate-buffered saline. 0.1 mL of the prepared cell suspension was subcutaneously transplanted to each NOD-SCID mouse (male, 6 weeks old). […] For a combined use group, 25 mg/kg or 50 mg/kg Compound A and 1 mg/kg or 50 mg/kg decitabine were administered sequentially. […] The major axis (mm) and minor axis (mm) of tumor were measured over time using an electronic digital caliper. […] In addition, the results of the last body weight measurement were used in dose calculation. […] A: Average tumor volume of the compound-administered group on the date of assessment (*) B: Average tumor volume of the untreated control group on the date of assessment (*) *: The tumor volume was calculated according to ½×[Major axis of tumor]×[Minor axis of tumor]×[Minor axis of tumor].
# [2] = Body weight change of MOLM-13 tumor-bearing NOD-SCID mice, Compound A and decitabine (Test Example 2); type: in vivo, mouse
# Method: (§1) Human acute myeloid leukemia cell line MOLM-13 cells were suspended to 5×10^7 cells/mL using phosphate-buffered saline. 0.1 mL of the prepared cell suspension was subcutaneously transplanted to each NOD-SCID mouse (male, 6 weeks old). On 6 days after the tumor inoculation, after confirmation that the average tumor volume exceeded 100 mm^3, the mice were grouped on the basis of their tumor volume values. 25 mg/kg or 50 mg/kg Compound A was orally administered by forced administration to the mice. 1 mg/kg or 50 mg/kg decitabine was intravenously administered to the tails of the mice. For a combined use group, 25 mg/kg or 50 mg/kg Compound A and 1 mg/kg or 50 mg/kg decitabine were administered sequentially. The administration of Compound A was performed once a day for 5 consecutive days (6 to 10 days after the tumor inoculation) from the date of grouping (6 days after the tumor inoculation), and after a 2-day drug holiday, performed once a day for 4 consecutive days (13 to 16 days after the tumor inoculation). The administration of decitabine to the 50 mg/kg group was performed at the date of grouping (6 days after the tumor inoculation), and the administration thereof to the 1 mg/kg group was performed once a day for 5 consecutive days (6 to 10 days after the tumor inoculation) from the date of grouping (6 days after the tumor inoculation). The major axis (mm) and minor axis (mm) of tumor were measured over time using an electronic digital caliper. Tumor growth inhibition % (TGI %) on the date of assessment (17 days after the tumor inoculation) calculated according to calculation formula (4) shown below was used in evaluation. Also, the body weights were measured over time using an automatic balance for small animals, and body weight change % was calculated according to calculation formula (5) shown below to study the influence of drug administration on the body weights. In addition, the results of the last body weight measurement were used in dose calculation.
# (§2) Body weight change (%)=Average body weight change % of the individuals (5)
# (§3) Body weight change % of each individual=[…]
# (§4) BWn: Body weight on day n
# (§5) BWs: Body weight on the start day of administration
# [3] = test system: human acute myeloid leukemia cell line MOLM-13; assay: In vivo effect of combined use of Compound A and azacitidine on subcutaneous MOLM-13 tumors in NOD-SCID mice (Test Example 1); conditions: for TGI (%): 17 days after tumor inoculation
# Method: Human acute myeloid leukemia cell line MOLM-13 cells were suspended to 5×10^7 cells/mL using phosphate-buffered saline. 0.1 mL of the prepared cell suspension was subcutaneously transplanted to each NOD-SCID mouse (male, 6 weeks old). […] The major axis (mm) and minor axis (mm) of tumor were measured over time using an electronic digital caliper. […] In addition, the results of the last body weight measurement were used in dose calculation. […] A: Average tumor volume of the compound-administered group on the date of assessment (*) B: Average tumor volume of the untreated control group on the date of assessment (*) *: The tumor volume was calculated according to ½×[Major axis of tumor]×[Minor axis of tumor]×[Minor axis of tumor].
# [4] = Body weight change of MOLM-13 tumor-bearing NOD-SCID mice, Compound A and azacitidine (Test Example 1); type: in vivo, mouse
# Method: as §1, with “the mice. 2.5 mg/kg or” for “the mice. 1 mg/kg or”, “mg/kg or 4 mg/kg azacitidine” for “mg/kg or 50 mg/kg decitabine”, “4 mg/kg azacitidine was intravenously” for “50 mg/kg decitabine was intravenously”, “A and 2.5 mg/kg or” for “A and 1 mg/kg or”, “4 mg/kg azacitidine were administered” for “50 mg/kg decitabine were administered”, “administration of azacitidine was performed” for “administration of decitabine to the 50 mg/kg group was performed at the date of grouping (6 days after the tumor inoculation), and the administration thereof to the 1 mg/kg group was performed”
# as §2, §3, §4, §5
# [5] = decitabine 1 mg/kg iv, day 6 after tumor inoculation
# [6] = decitabine 1 mg/kg iv, day 8 after tumor inoculation
# [7] = decitabine 1 mg/kg iv, day 10 after tumor inoculation
# [8] = decitabine 1 mg/kg iv, day 13 after tumor inoculation
# [9] = decitabine 1 mg/kg iv, day 15 after tumor inoculation
# [10] = decitabine 1 mg/kg iv, day 17 after tumor inoculation
# [11] = decitabine 50 mg/kg iv, day 6 after tumor inoculation
# [12] = decitabine 50 mg/kg iv, day 8 after tumor inoculation
# [13] = decitabine 50 mg/kg iv, day 10 after tumor inoculation
# [14] = decitabine 50 mg/kg iv, day 13 after tumor inoculation
# [15] = decitabine 50 mg/kg iv, day 15 after tumor inoculation
# [16] = decitabine 50 mg/kg iv, day 17 after tumor inoculation
# [17] = azacitidine 4 mg/kg iv, day 6 after tumor inoculation
# [18] = azacitidine 4 mg/kg iv, day 8 after tumor inoculation
# [19] = azacitidine 4 mg/kg iv, day 10 after tumor inoculation
# [20] = azacitidine 4 mg/kg iv, day 13 after tumor inoculation
# [21] = azacitidine 4 mg/kg iv, day 15 after tumor inoculation
# [22] = azacitidine 4 mg/kg iv, day 17 after tumor inoculation
# [23] = Compound A 25 mg/kg oral, day 6 after tumor inoculation
# [24] = Compound A 25 mg/kg oral, day 8 after tumor inoculation
# [25] = Compound A 25 mg/kg oral, day 10 after tumor inoculation
# [26] = Compound A 25 mg/kg oral, day 13 after tumor inoculation
# [27] = Compound A 25 mg/kg oral, day 15 after tumor inoculation
# [28] = Compound A 25 mg/kg oral, day 17 after tumor inoculation
# [29] = Compound A 50 mg/kg oral, day 6 after tumor inoculation
# [30] = Compound A 50 mg/kg oral, day 8 after tumor inoculation
# [31] = Compound A 50 mg/kg oral, day 10 after tumor inoculation
# [32] = Compound A 50 mg/kg oral, day 13 after tumor inoculation
# [33] = Compound A 50 mg/kg oral, day 15 after tumor inoculation
# [34] = Compound A 50 mg/kg oral, day 17 after tumor inoculation
structure (smiles),measurement,setting,value
"Nc1ncn([C@H]2C[C@H](O)[C@@H](CO)O2)c(=O)n1 [Decitabine, 4-amino-1-(2-deoxy-β-D-erythro-pentofuranosyl)-1,3,5-triazin-2(1H)-one, reference compound]",TGI (%),[1]; decitabine 1 mg/kg iv,38%
same,"Estimated tumor volume, average",[1]; [5],144 mm^3
same,"Estimated tumor volume, average",[1]; [6],228 mm^3
same,"Estimated tumor volume, average",[1]; [7],327 mm^3
same,"Estimated tumor volume, average",[1]; [8],585 mm^3
same,"Estimated tumor volume, average",[1]; [9],901 mm^3
same,"Estimated tumor volume, average",[1]; [10],1441 mm^3
same,TGI (%),[1]; decitabine 50 mg/kg iv,14%
same,"Estimated tumor volume, average",[1]; [11],145 mm^3
same,"Estimated tumor volume, average",[1]; [12],206 mm^3
same,"Estimated tumor volume, average",[1]; [13],365 mm^3
same,"Estimated tumor volume, average",[1]; [14],732 mm^3
same,"Estimated tumor volume, average",[1]; [15],1175 mm^3
same,"Estimated tumor volume, average",[1]; [16],1997 mm^3
same,"Body weight change (%), average",[2]; [5],0.0%
same,"Body weight change (%), average",[2]; [6],2.6%
same,"Body weight change (%), average",[2]; [7],2.5%
same,"Body weight change (%), average",[2]; [8],7.8%
same,"Body weight change (%), average",[2]; [9],11.5%
same,"Body weight change (%), average",[2]; [10],14.3%
same,"Body weight change (%), average",[2]; [11],0.0%
same,"Body weight change (%), average",[2]; [12],3.7%
same,"Body weight change (%), average",[2]; [13],6.0%
same,"Body weight change (%), average",[2]; [14],9.6%
same,"Body weight change (%), average",[2]; [15],10.3%
same,"Body weight change (%), average",[2]; [16],14.6%
"Nc1ncn([C@@H]2O[C@H](CO)[C@@H](O)[C@H]2O)c(=O)n1 [Azacitidine, 4-amino-1-β-D-ribofuranosyl-1,3,5-triazin-2(1H)-one, reference compound]",TGI (%),[3]; azacitidine 4 mg/kg iv,28%
same,"Estimated tumor volume, average",[3]; [17],115 mm^3
same,"Estimated tumor volume, average",[3]; [18],226 mm^3
same,"Estimated tumor volume, average",[3]; [19],334 mm^3
same,"Estimated tumor volume, average",[3]; [20],637 mm^3
same,"Estimated tumor volume, average",[3]; [21],1359 mm^3
same,"Estimated tumor volume, average",[3]; [22],1855 mm^3
same,"Body weight change (%), average",[4]; [17],0.0%
same,"Body weight change (%), average",[4]; [18],−0.2%
same,"Body weight change (%), average",[4]; [19],−0.4%
same,"Body weight change (%), average",[4]; [20],5.4%
same,"Body weight change (%), average",[4]; [21],8.8%
same,"Body weight change (%), average",[4]; [22],12.1%
"CC1(C)CCC2(CC1)N[C@@H](C(=O)N[C@@H]1CC[C@@H](C(N)=O)OC1)[C@H](c1ccnc(Cl)c1F)[C@]21C(=O)Nc2cc(Cl)ccc21.Cc1ccc(S(=O)(=O)O)cc1 [Compound A, (3′R,4′S,5′R)—N-[(3R,6S)-6-carbamoyltetrahydro-2H-pyran-3-yl]-6″-chloro-4′-(2-chloro-3-fluoropyridin-4-yl)-4,4-dimethyl-2″-oxo-1″,2″-dihydrodispiro[cyclohexane-1,2′-pyrrolidine-3′,3″-indole]-5′-carboxamide p-toluenesulfonate]",TGI (%),[3]; Compound A 25 mg/kg oral,34%
same,"Estimated tumor volume, average",[3]; [23],118 mm^3
same,"Estimated tumor volume, average",[3]; [24],269 mm^3
same,"Estimated tumor volume, average",[3]; [25],418 mm^3
same,"Estimated tumor volume, average",[3]; [26],834 mm^3
same,"Estimated tumor volume, average",[3]; [27],1346 mm^3
same,"Estimated tumor volume, average",[3]; [28],1697 mm^3
same,TGI (%),[3]; Compound A 50 mg/kg oral,72%
same,"Estimated tumor volume, average",[3]; [29],116 mm^3
same,"Estimated tumor volume, average",[3]; [30],180 mm^3
same,"Estimated tumor volume, average",[3]; [31],197 mm^3
same,"Estimated tumor volume, average",[3]; [32],364 mm^3
same,"Estimated tumor volume, average",[3]; [33],545 mm^3
same,"Estimated tumor volume, average",[3]; [34],721 mm^3
same,"Body weight change (%), average",[4]; [23],0.0%
same,"Body weight change (%), average",[4]; [24],2.5%
same,"Body weight change (%), average",[4]; [25],3.7%
same,"Body weight change (%), average",[4]; [26],9.0%
same,"Body weight change (%), average",[4]; [27],10.8%
same,"Body weight change (%), average",[4]; [28],13.8%
same,"Body weight change (%), average",[4]; [29],0.0%
same,"Body weight change (%), average",[4]; [30],1.7%
same,"Body weight change (%), average",[4]; [31],4.4%
same,"Body weight change (%), average",[4]; [32],8.7%
same,"Body weight change (%), average",[4]; [33],8.9%
same,"Body weight change (%), average",[4]; [34],10.7%
same,TGI (%),[1]; Compound A 25 mg/kg oral,22%
same,"Estimated tumor volume, average",[1]; [23],147 mm^3
same,"Estimated tumor volume, average",[1]; [24],257 mm^3
same,"Estimated tumor volume, average",[1]; [25],388 mm^3
same,"Estimated tumor volume, average",[1]; [26],876 mm^3
same,"Estimated tumor volume, average",[1]; [27],1213 mm^3
same,"Estimated tumor volume, average",[1]; [28],1825 mm^3
same,TGI (%),[1]; Compound A 50 mg/kg oral,76%
same,"Estimated tumor volume, average",[1]; [29],143 mm^3
same,"Estimated tumor volume, average",[1]; [30],227 mm^3
same,"Estimated tumor volume, average",[1]; [31],170 mm^3
same,"Estimated tumor volume, average",[1]; [32],310 mm^3
same,"Estimated tumor volume, average",[1]; [33],407 mm^3
same,"Estimated tumor volume, average",[1]; [34],554 mm^3
same,"Body weight change (%), average",[2]; [23],0.0%
same,"Body weight change (%), average",[2]; [24],2.3%
same,"Body weight change (%), average",[2]; [25],2.0%
same,"Body weight change (%), average",[2]; [26],8.0%
same,"Body weight change (%), average",[2]; [27],8.5%
same,"Body weight change (%), average",[2]; [28],10.3%
same,"Body weight change (%), average",[2]; [29],0.0%
same,"Body weight change (%), average",[2]; [30],1.7%
same,"Body weight change (%), average",[2]; [31],2.4%
same,"Body weight change (%), average",[2]; [32],7.4%
same,"Body weight change (%), average",[2]; [33],6.2%
same,"Body weight change (%), average",[2]; [34],7.2%
